Source: ChEMBL document CHEMBL4033691, “Discovery and structure-guided fragment-linking of 4-(2,3-dichlorobenzoyl)-1-methyl-pyrrole-2-carboxamide as a pyruvate kinase M2 activator” (Bioorg Med Chem, 2017)
Calls of active or inactive are those of the source. The rule behind the calls is not given here.

Assays:
Pyruvate kinase PKM [1] = target: T1, Pyruvate kinase PKM (Homo sapiens, UniProt P14618); assay: Activation of full length recombinant human N-terminal His6-tagged PKM2 expressed in Escherichia coli BL21(DE3) using PEP as substrate preincubated for 5 mins followed by substrate addition measured after 90 mins in presence of ADP by Kinase-Glo luminescence assay
Pyruvate kinase PKM [2] = target: T1, Pyruvate kinase PKM; assay: Activation of full length recombinant human N-terminal His6-tagged PKM2 expressed in Escherichia coli BL21(DE3) at 10 ug/ml using PEP as substrate preincubated for 5 mins followed by substrate addition measured after 90 mins in presence of ADP by Kinase-Glo luminescence assay relative to control
Target sequence in this assay (P14618 2-531 limits assumed): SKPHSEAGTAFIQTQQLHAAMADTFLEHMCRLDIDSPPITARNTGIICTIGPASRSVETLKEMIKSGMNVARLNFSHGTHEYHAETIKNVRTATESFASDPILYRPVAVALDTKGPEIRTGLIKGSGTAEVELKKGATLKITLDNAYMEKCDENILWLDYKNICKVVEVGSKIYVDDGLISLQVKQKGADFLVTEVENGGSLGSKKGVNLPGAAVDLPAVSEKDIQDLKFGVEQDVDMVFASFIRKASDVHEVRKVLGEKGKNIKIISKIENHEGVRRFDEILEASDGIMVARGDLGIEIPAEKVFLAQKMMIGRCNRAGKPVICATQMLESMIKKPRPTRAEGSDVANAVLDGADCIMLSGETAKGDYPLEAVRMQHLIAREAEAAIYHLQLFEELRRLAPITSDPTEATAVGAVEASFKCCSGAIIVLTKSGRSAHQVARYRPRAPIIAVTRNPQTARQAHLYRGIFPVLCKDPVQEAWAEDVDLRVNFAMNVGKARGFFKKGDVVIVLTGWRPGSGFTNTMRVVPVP

[3] = Stability of the compound; assay type: physicochemical
Pyruvate kinase PKM [4] = target: T1, Pyruvate kinase PKM; assay: Activation of PKM2 in human A549 cells using PEP as substrate preincubated for 1 hr followed by substrate addition measured after 1 hr in presence of ADP by Kinase-Glo luminescence assay; assay type: cell-based
Target sequence in this assay (P14618 whole entry): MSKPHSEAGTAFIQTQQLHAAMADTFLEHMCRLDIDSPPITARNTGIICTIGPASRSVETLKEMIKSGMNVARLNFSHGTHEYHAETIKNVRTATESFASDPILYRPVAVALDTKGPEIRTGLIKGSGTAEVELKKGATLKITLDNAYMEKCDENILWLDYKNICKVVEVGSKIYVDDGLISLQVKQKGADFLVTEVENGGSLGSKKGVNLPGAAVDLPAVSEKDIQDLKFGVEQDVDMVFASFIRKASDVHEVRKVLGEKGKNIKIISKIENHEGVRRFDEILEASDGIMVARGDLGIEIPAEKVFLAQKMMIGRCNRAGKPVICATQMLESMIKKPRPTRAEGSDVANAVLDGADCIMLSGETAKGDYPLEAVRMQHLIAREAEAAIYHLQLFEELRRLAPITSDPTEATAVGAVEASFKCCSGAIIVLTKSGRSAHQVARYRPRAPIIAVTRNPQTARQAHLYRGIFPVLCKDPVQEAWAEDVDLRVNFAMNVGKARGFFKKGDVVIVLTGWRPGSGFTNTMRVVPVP

A549 = assay: Growth inhibition of human A549 cells after 72 hrs in presence of serine by CellTiter-Glo luminescent assay; assay type: functional, cell-based
Pyruvate kinase PKM [5] = target: T1, Pyruvate kinase PKM; assay: Activation of PKM2 in human A549 cells using PEP as substrate preincubated for 1 hr followed by substrate addition measured after 1 hr in presence of ADP by Kinase-Glo luminescence assay relative to control; assay type: cell-based
Target sequence in this assay (P14618 2-531 limits assumed): as the sequence (P14618 2-531 limits assumed) above

AC50 (Pyruvate kinase PKM [1])	Emax (Pyruvate kinase PKM [2])	Stability [3]	AC50 (Pyruvate kinase PKM [4])	Activity (Pyruvate kinase PKM [5])	AC200 (Pyruvate kinase PKM [1])	SMILES	growth inhibition (GI) (A549)
150 nM	181%					O=S(=O)(c1ccc2c(c1)OCCO2)N1CCN(S(=O)(=O)c2c(F)cccc2F)CC1	
	194%	Unstable				Cn1cc(C(=O)c2cccc(Cl)c2Cl)cc1C(=O)NCNC(=O)c1cc(C(=O)c2cccc(Cl)c2Cl)cn1C	
	184%		188 nM	598%		Cn1cc(C(=O)c2cccc(Cl)c2Cl)cc1C(=O)NCCNC(=O)c1cc(C(=O)c2cccc(Cl)c2Cl)cn1C	inactive
	198%		> 100000 nM		26 µM	Cn1cc(C(=O)c2cccc(Cl)c2Cl)cc1C(N)=O	
